According to publication PMC10674299, “Discovery of Guanfacine as a Novel TAAR1 Agonist: A Combination Strategy through Molecular Modeling Studies and Biological Assays” (Pharmaceuticals, 2023):
Like-named read-outs stand apart in the source and are kept apart here.

Tests used:
α2-ADR [1] = biological target: α2-ADR; design: method as in PMID 22795332; conditions: cited from earlier work
α2-ADR [2] = conditions: cited from earlier work
hTAAR1 [3] = biological target: T1, hTAAR1 (Homo sapiens, UniProt Q96RJ0); conditions: S18616; cited from earlier work
T1 construct: Plasmid containing the cDNA for hTAAR1 was a generous gift from Hoffman-La Roche; expressed in transfected cells; host or cells: HEK293T (ATCC CRL-11268), transient transfection with Lipofectamine 2000
T1 sequence (Q96RJ0 1-339): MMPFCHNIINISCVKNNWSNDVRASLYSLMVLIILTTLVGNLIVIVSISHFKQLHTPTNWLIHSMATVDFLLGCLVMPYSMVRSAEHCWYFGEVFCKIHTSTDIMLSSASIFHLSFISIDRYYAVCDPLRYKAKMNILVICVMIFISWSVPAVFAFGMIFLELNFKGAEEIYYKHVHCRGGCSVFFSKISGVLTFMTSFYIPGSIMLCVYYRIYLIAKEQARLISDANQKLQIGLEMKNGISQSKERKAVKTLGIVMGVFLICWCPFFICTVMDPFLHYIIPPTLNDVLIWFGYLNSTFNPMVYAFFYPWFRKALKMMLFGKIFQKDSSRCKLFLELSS

chimeric receptor cTAAR1 = biological target: chimeric receptor cTAAR1; design: method as in PMID 19725810; conditions: cited from earlier work
mTAAR1 [4] = tested on: mTAAR1; design: method as in PMID 19725810; conditions: cited from earlier work
mTAAR1 [5] = tested on: mTAAR1; design: method as in doi:10.1039/C5MD00400D; conditions: BRET cAMP reporter; cited from earlier work
hTAAR1 [6] = biological target: T1, hTAAR1; experiment: BRET-based cAMP assay in HEK293 cells transfected with hTAAR1 and cAMP biosensor; format: cell-based; conditions: for EC50: HEK293, dose-response 1 nM to 10 μM, IBMX 200 µM
Method: hTAAR1 is coupled to stimulatory G proteins and thus its activation induces an increase in the cAMP production. We measured the potential activity of guanfacine and guanabenz by using a BRET-based assay in which HEK293 cells were transfected with hTAAR1, or the empty vector as control, and the cAMP BRET biosensor. […] A dose-response experiment was performed using concentrations ranging from 1 nM to 10 μM to calculate the corresponding EC50 and the Emax values.
Human embryonic kidney 293 cells (HEK293T; ATCC CRL-11268) were maintained in Dulbecco’s Modified Eagle’s medium (DMEM; Gibco-Thermo Fisher Scientific, New York, NY, USA) supplemented with 10% (v/v) of FBS, 2 mM l-glutamine, and 0.05 mg/mL of gentamicin (both from Gibco) at 37 °C in a humidified atmosphere at 95% air and 5% CO2. Transient transfections were performed 24 h after cell seeding using the Lipofectamine reagent 2000 protocol (Invitrogen-Thermo Fisher Scientific, Carlsbad, USA). Then, 5 µg of hTAAR1 and 4 µg of cAMP biosensor protein (EPAC) encoding plasmids (the latter based on pcDNA3 core vector [59]) for each milliliter of transfection mix were used. For the BRET experiments, the cells were plated 6 h after transfection in poly-D-lysine coated 96-well white opaque microplates (Corning, New York, NY, USA) at a density of 7 × 10^4 cells per well in phenol red free Minimum Essential Medium (MEM; Gibco-Thermo Fisher Scientific, New York, NY, USA) containing 2% of FBS, 10 mM HEPES buffering agent, and 2 mM L-glutamine (all from Gibco-Thermo Fisher Scientific, New York, NY, USA). The cells were then cultured for an additional 24 h.
The BRET experiment was conducted as already described. Briefly, for time course experiments, the plate was read immediately after the addition of the agonist and for approximately 20 min. All the experiments were conducted in the presence of the phosphodiesterase inhibitor 3-isobutyl-1-methylxanthine (IBMX; Sigma-Aldrich, St. Louis, MO, USA) at the final concentration of 200 µM. Readings were collected using a Tecan Infinite instrument that allows the sequential integration of the signals detected in the 465 to 505 nm and 515 to 555 nm windows using filters with the appropriate band pass and by using iControl software. The acceptor/donor ratio was then calculated.
All the compounds were dissolved in dimethyl sulfoxide (DMSO; Sigma-Aldrich, St. Louis, MO, USA) and tested at the final concentration of 10 μM. Beta-phenylethylamine (Sigma-Aldrich, St. Louis, MO, USA) at the final concentration of 10 µM was applied as a positive control. To confirm specificity of positive responses, parallel screening on cells not transfected with the TAAR1-encoding vector was carried out. For compounds considered active, separate dose-response experiments were performed in order to calculate the EC50 values. Curves were fitted using a non-linear regression and one site specific binding with GraphPad Prism 6 (GraphPad Software). Data are representative of 4–5 independent experiments and are expressed as means, SD < 10%.

DAT-KO rats = experiment: Locomotor activity of DAT-KO rats (Actometer); format: in vivo, rat; conditions: 0.1 and 0.3 mg/kg i/p, 60 min, vs vehicle p < 0.001 and p = 0.02 (Bonferroni)
Method: To evaluate the in vivo pharmacological effect of guanfacine, we used a rodent model of hyperdopaminergia, the dopamine transporter knockout (DAT-KO) rats, that also mimics some phenotypic aspect of ADHD and has certain predictive validity for the search of novel pharmacological agents to control hyperactivity and cognitive processes in patients with this disease. […] Thus, the effect of guanfacine on hyperactivity of DAT-KO rats was evaluated.
Results are presented on Figure 15. […] We used the mixed ANOVA (the within-subject factors ‘5-min bin’ (1–12) and ‘dose’ (0.0; 0.1; 0.3 mg/kg), the between-subject factor ‘mutation’ (‘WT’; ‘KO’); the random factor ‘rat #’) on rank-transformed data to analyze results. […] Locomotor activity of the rats decreased from the 1st to the 12th bin (the effect of factor ‘5-min bin’: F(11,51) = 2.51, p = 0.01). The lack of DAT was associated with an increased level of locomotor activity (the effect of factor ‘mutation’: F(1,11) = 222.94, p < 0.001). […] We used Bonferroni’s test for post hoc comparisons. […]
The study was performed in the apparatus ‘Actometer’ described in detail before. […] Following the injection, the locomotor activity of the animals was recorded for an additional 60 min divided in 12 intervals of 5-min each. […]

[7] = design: method as in PMID 12351753; conditions: animal studies, cited from earlier work

c1ccc(CC2=NCCN2)cc1 [5a]
Ki (α2-ADR [1]): 0.0984 µM

c1ccc(Cc2ncc[nH]2)cc1 [6a]
Ki (α2-ADR [1]): 1.88 µM

NC1=NC2(CCc3cccc(Cl)c3C2)CO1 (stereo not drawn) [S18616]
EC50 (α2-ADR [2]; S18616): 0.0007 µM | EC50 (hTAAR1 [3]): 0.015 µM

CC(C)N(Cc1c[nH]cn1)c1ccc(Cl)cc1 [compound 24]
Ki (α2-ADR [1]): 0.84 µM

CCN(Cc1ncc[nH]1)c1ccccc1 [compound 51]
Ki (α2-ADR [1]): 0.254 to 0.497 µM

N=C(N)N/N=C/c1c(Cl)cccc1Cl [guanabenz]
EC50 (α2-ADR [2]; guanabenz): ~0.0163 µM | EC50 (chimeric receptor cTAAR1; chimeric human/mouse receptor): 0.025 µM | type of agonism at cTAAR1 (chimeric receptor cTAAR1): partial agonist | EC50 (mTAAR1 [4]): 0.007 µM | type of agonism at mTAAR1 (mTAAR1 [4]): partial agonist | EC50 (mTAAR1 [5]): 0.09 µM | type of agonism at mTAAR1 (mTAAR1 [5]): full agonist | Emax (hTAAR1 [6]; HEK293, read-out: hTAAR1 Emax): > 85% | type of agonism at hTAAR1 (hTAAR1 [6]; cAMP BRET, HEK293): full agonists | EC50 (hTAAR1 [6]; cAMP BRET): 0.01 µM

N=C(N)NC(=O)Cc1c(Cl)cccc1Cl [guanfacine]
effect on locomotor activity (DAT-KO rats): decreased locomotor activity | EC50 (α2-ADR [2]; guanfacine): ~0.0251 µM | adverse effects ([7]; higher doses (10 mg/Kg)): provoked more relevant adverse effects | effect on working memory ([7]; low doses (0.5–1 mg/Kg)): improved working memory without reducing blood pressure or causing significant sedation | type of agonism at hTAAR1 (hTAAR1 [6]; cAMP BRET, HEK293): full agonists | EC50 (hTAAR1 [6]; cAMP BRET): 0.02 µM | Emax (hTAAR1 [6]; cAMP BRET, HEK293, read-out: hTAAR1 Emax): > 85%

NCCc1ccccc1 [β-PEA, β-phenylethylamine]
EC50 (hTAAR1 [6]; cAMP BRET): 0.202 µM
